# Measurements reported in patent US8580811B2 (Ligand Pharmaceuticals Incorporated, priority 2005, dated 2013).
# Biological target: T1, human AR (Homo sapiens, UniProt P10275)
# T1 construct: expressed in transfected cells; host or cells: COS-1 cells
# T1 sequence (P10275 1-920): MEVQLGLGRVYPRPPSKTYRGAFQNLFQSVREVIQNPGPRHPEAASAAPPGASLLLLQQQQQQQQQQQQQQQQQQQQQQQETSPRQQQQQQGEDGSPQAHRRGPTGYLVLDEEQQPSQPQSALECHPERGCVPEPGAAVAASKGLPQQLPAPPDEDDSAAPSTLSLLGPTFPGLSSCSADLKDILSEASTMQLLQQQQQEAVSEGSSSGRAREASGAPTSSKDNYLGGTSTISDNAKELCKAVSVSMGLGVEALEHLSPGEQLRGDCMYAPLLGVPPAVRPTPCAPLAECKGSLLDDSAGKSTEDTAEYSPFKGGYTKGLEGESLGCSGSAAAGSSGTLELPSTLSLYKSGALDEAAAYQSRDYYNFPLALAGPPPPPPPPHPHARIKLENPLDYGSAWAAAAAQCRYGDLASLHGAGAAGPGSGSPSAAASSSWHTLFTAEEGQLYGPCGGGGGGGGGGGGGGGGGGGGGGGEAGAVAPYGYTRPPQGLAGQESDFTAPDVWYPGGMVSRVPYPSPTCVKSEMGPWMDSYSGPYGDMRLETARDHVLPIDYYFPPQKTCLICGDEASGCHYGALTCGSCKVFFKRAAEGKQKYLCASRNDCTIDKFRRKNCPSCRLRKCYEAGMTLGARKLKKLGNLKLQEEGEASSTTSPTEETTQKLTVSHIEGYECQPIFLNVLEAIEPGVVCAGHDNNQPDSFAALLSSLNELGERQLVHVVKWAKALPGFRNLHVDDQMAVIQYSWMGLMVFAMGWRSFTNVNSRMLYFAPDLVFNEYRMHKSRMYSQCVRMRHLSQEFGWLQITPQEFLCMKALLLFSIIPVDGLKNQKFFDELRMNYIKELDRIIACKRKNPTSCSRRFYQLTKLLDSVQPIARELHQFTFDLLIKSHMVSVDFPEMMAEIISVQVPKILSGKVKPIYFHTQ
# Assay: IR Binding Assay: whole cell competitive binding of test compounds against 3H-DHT in COS-1 cells transfected with pRShAR
# Details: not given
# Method in brief: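 COS-1 cells transfected with pRShAR plus β-Gal reporter, serum-starved 24 h, then exposed to 1 nM ³H-DHT with compounds at 10^−10 to 10^−6 M for 3 h at 37 °C. Bound ³H-DHT counted in lysates, normalized to β-Gal. IC50 from log-logit plot; Ki via Cheng-Prusoff using Kd from Scatchard saturation analysis.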
row,SMILES,Ki [nM]
1,"Cc1c(C(F)(F)F)n(CC(F)(F)C(F)(F)F)c2ccc3[nH]c(=O)cc(Cl)c3c12 [Compound 260, 9-Chloro-1-methyl-3-(2,2,3,3,3-pentafluoropropyl)-2-(trifluoromethyl)-3,6-dihydro-pyrrolo[3,2-f]quinolin-7-one]",> 10
2,"CCc1c(C)[nH]c2ccc3[nH]c(=O)cc(Cl)c3c12 [Compound 109, 9-Chloro-2-methyl-1-ethyl-3,6-dihydro-pyrrolo[3,2-f]quinolin-7-one]",> 10
3,"CC1c2c(ccc3[nH]c(=O)cc(Cl)c23)N(CC(F)(F)C(F)(F)C(F)(F)F)C1C (racemic) [Compound 168, (±)-9-Chloro-1,2-dimethyl-3-(2,2,3,3,4,4,4-heptafluorobutyl)-1,2,3,6-tetrahydro-pyrrolo[3,2-f]quinolin-7-one]",> 10
4,"Cc1c(-c2ccncc2)n(C[C@H](O)C(F)(F)F)c2ccc3[nH]c(=O)cc(Cl)c3c12 [Compound 273, (S)-9-Chloro-1-methyl-2-(4-pyridyl)-3-(3,3,3-trifluoro-2-hydroxy-propyl)-3,6-dihydro-pyrrolo[3,2-f]quinolin-7-one]",> 10
5,"CCCc1c(C)[nH]c2ccc3[nH]c(=O)cc(Cl)c3c12 [Compound 124, 9-Chloro-2-methyl-1-propyl-3,6-dihydro-pyrrolo[3,2-f]quinolin-7-one]",> 10
6,"CC1c2c(ccc3[nH]c(=O)cc(Cl)c23)N(CC(F)(F)F)C1C (racemic) [Compound 127, (±)-9-Chloro-1,2-dimethyl-3-(2,2,2-trifluoro-ethyl)-1,2,3,6-tetrahydro-pyrrolo[3,2-f]quinolin-7-one]",5 to 10
7,"Cc1c(-c2ccccn2)n(C[C@H](O)C(F)(F)F)c2ccc3[nH]c(=O)cc(Cl)c3c12 [Compound 275, (S)-9-Chloro-1-methyl-2-(2-pyridyl)-3-(3,3,3-trifluoro-2-hydroxy-propyl)-3,6-dihydro-pyrrolo[3,2-f]quinolin-7-one]",5 to 10
8,"O=c1cc(Cl)c2c3c(ccc2[nH]1)N(CC(F)(F)F)[C@H]1CCC[C@@H]31 [Compound 163, (−)-9-Chloro-3-(2,2,2-trifluoroethyl)-1,2-trimethylene-1,2,3,6-tetrahydropyrrolo[3,2-f]-quinolin-7-one]",> 10
9,"CC1c2c(ccc3[nH]c(=O)cc(Cl)c23)N(CC(F)(F)F)C1c1cccc(Cl)c1 (racemic) [Compound 146, (±)-9-Chloro-2-(3-chlorophenyl)-1-methyl-3-(2,2,2-trifluoroethyl)-1,2,3,6-tetrahydro-pyrrolo[3,2-f]quinolin-7-one]",> 10
10,"Cc1c(C(F)(F)C(F)(F)F)n(CC(F)(F)F)c2ccc3[nH]c(=O)cc(Cl)c3c12 [Compound 255, 9-Chloro-1-methyl-2-(pentafluoroethyl)-3-(2,2,2-trifluoroethyl)-3,6-dihydro-pyrrolo[3,2-f]-quinolin-7-one]",< 5
11,"C=C(C)Cn1c(C)c(C)c2c3c(C(F)(F)F)cc(=O)[nH]c3ccc21 [Compound 237, 1,2-Dimethyl-3-(2-methyl-allyl)-9-trifluoromethyl-3,6-dihydro-pyrrolo[3,2-f]quinolin-7-one]",< 5
12,"CCC1C(C)c2c(ccc3[nH]c(=O)cc(Cl)c23)N1CC(F)(F)F (racemic) [Compound 128, (±)-9-Chloro-2-ethyl-1-methyl-3-(2,2,2-trifluoro-ethyl)-1,2,3,6-tetrahydro-pyrrolo[3,2-f]quinolin-7-one]",> 10
13,"Cc1c(C)n(CC(F)(F)Cl)c2ccc3[nH]c(=O)cc(Cl)c3c12 [Compound 212, 9-Chloro-3-(2-chloro-2,2-difluoroethyl)-1,2-dimethyl-3,6-dihydro-pyrrolo[3,2-f]quinolin-7-one]",< 5
14,"Cc1c(-c2ccc(C(F)(F)F)cc2)n(CC(F)(F)F)c2ccc3[nH]c(=O)cc(Cl)c3c12 [Compound 202, 9-Chloro-1-methyl-2-(4-trifluoromethylphenyl)-3-(2,2,2-trifluoroethyl)-3,6-dihydro-pyrrolo[3,2-f]-quinolin-7-one]",> 10
15,"CC1c2c(ccc3[nH]c(=O)cc(Cl)c23)N(CC(F)(F)F)C1c1ccc(Cl)cc1 (racemic) [Compound 152, (±)-9-Chloro-2-(4-chlorophenyl)-1-methyl-3-(2,2,2-trifluoroethyl)-1,2,3,6-tetrahydro-pyrrolo[3,2-f]quinolin-7-one]",> 10
16,"CCc1c(C)c2c3c(Cl)cc(=O)[nH]c3ccc2n1CC(F)(F)C(F)(F)F [Compound 223, 9-Chloro-2-ethyl-1-methyl-3-(2,2,3,3,3-pentafluoropropyl)-3,6-dihydro-pyrrolo[3,2-f]-quinolin-7-one]",< 5
17,"CCCc1c(C)n(CC(F)(F)F)c2ccc3[nH]c(=O)cc(Cl)c3c12 [Compound 210, 9-Chloro-2-methyl-1-propyl-3-(2,2,2-trifluoroethyl)-3,6-dihydro-pyrrolo[3,2-f]quinolin-7-one]",< 5
18,"CC1c2c(ccc3[nH]c(=O)cc(Cl)c23)N(C)C1C (racemic) [Compound 136, (±)-9-Chloro-1,2,3-trimethyl-1,2,3,6-tetrahydro-pyrrolo[3,2-f]quinolin-7-one]",> 10
19,"CC1c2c(ccc3[nH]c(=O)cc(Cl)c23)N(CCC(F)(F)F)C1c1ccccc1 (racemic) [Compound 169, (±)-9-Chloro-1-methyl-2-phenyl-3-(3,3,3-trifluoropropyl)-1,2,3,6-tetrahydro-pyrrolo[3,2-f]quinolin-7-one]",< 5
20,"CCC1C(C)c2c(ccc3[nH]c(=O)cc(Cl)c23)N1CCC(F)(F)F (racemic) [Compound 170, (±)-9-Chloro-2-ethyl-1-methyl-3-(3,3,3-trifluoropropyl)-1,2,3,6-tetrahydro-pyrrolo[3,2-f]quinolin-7-one]",< 5
21,"Cc1c(C)n(CC(F)(F)C(F)(F)C(F)(F)F)c2ccc3[nH]c(=O)cc(Cl)c3c12 [Compound 214, 9-Chloro-1,2-dimethyl-3-(2,2,3,3,4,4,4-heptafluorobutyl)-3,6-dihydro-pyrrolo[3,2-f]-quinolin-7-one]",> 10
22,"Cc1c(C)n(CCCBr)c2ccc3[nH]c(=O)cc(C(F)(F)F)c3c12 [Compound 288, 3-(3-Bromopropyl)-1,2-dimethyl-9-trifluoromethyl-3,6-dihydro-pyrrolo[3,2-f]-quinolin-7-one]",< 5
23,"CCn1cc(C)c2c3c(Cl)cc(=O)[nH]c3ccc21 [Compound 193, 9-Chloro-3-ethyl-1-methyl-3,6-dihydro-pyrrolo[3,2-f]quinolin-7-one]",5 to 10
24,"Cc1c(C=O)c2c3c(Cl)cc(=O)[nH]c3ccc2n1Cc1ccccc1 [Compound 188, 3-Benzyl-9-chloro-2-methyl-7-oxo-6,7-dihydro-3H-pyrrolo[3,2-f]quinoline-1-carbaldehyde]",< 5
25,"Cc1c(-c2ccccc2)n(CC(F)(F)F)c2ccc3[nH]c(=O)cc(Cl)c3c12 [Compound 187, 9-Chloro-1-methyl-2-phenyl-3-(2,2,2-trifluoroethyl)-3,6-dihydro-pyrrolo[3,2-f]quinolin-7-one]",< 5
26,"CC1c2c(ccc3[nH]c(=O)cc(C(F)(F)F)c23)N(CC(F)(F)Cl)C1C (racemic) [Compound 175, (±)-3-(2-Chloro-2,2-difluoroethyl)-1,2-dimethyl-9-trifluoromethyl-1,2,3,6-tetrahydro-pyrrolo[3,2-f]quinolin-7-one]",< 5
27,"CCN1CC(C)c2c1ccc1[nH]c(=O)cc(Cl)c21 (racemic) [Compound 134, (±)-9-Chloro-3-ethyl-1-methyl-1,2,3,6-tetrahydro-pyrrolo[3,2-f]quinolin-7-one]",< 5

# Same assay, conditions: competition with 1 nM 3H-DHT, transfected COS-1 cells, 3 h at 37° C., Cheng-Prusoff from IC50; read-out: Ki
row,SMILES,Ki [nM]
1,"CCc1c(-c2ccccc2)[nH]c2ccc3[nH]c(=O)cc(Cl)c3c12 [Compound 125, 9-Chloro-1-ethyl-2-phenyl-3,6-dihydro-pyrrolo[3,2-f]quinolin-7-one]",> 10
2,"CC1c2c(ccc3[nH]c(=O)cc(Cl)c23)NC1c1ccccc1 (racemic) [Compound 172, (±)-9-Chloro-1-methyl-2-phenyl-1,2,3,6-tetrahydro-pyrrolo[3,2-f]quinolin-7-one]",> 10
3,"CCOC(=O)c1[nH]c2ccc3[nH]c(=O)cc(Cl)c3c2c1C [Compound 111, 9-Chloro-1-methyl-7-oxo-6,7-dihydro-3H-pyrrolo[3,2-f]quinoline-2-carboxylic acid ethyl ester]",> 10
4,"Cc1c(-c2cccs2)[nH]c2ccc3[nH]c(=O)cc(Cl)c3c12 [Compound 120, 9-Chloro-1-methyl-2-thien-2-yl-3,6-dihydro-pyrrolo[3,2-f]quinolin-7-one]",> 10
